Assay results: patent publication US20250295776A1, “CLEAVAGE RESISTANT CD16 CONSTRUCTS AND USES THEREOF” (Celularity Inc., priority 2022, published 2025)

Experiments:
CD34+ cells [1] = assay: NK cell differentiation of compound-cultured cells (flow cytometry); format: cell-based, human
Text: (§1) UCB CD34+ cells were cultivated in presence of cytokines including thrombopoietin, SCF, Flt3 ligand, IL-7, IL-15 and IL-2 for 35 days to produce three-stage NK cells, as described in Example 1. Multi-color flow cytometry was used to determine the phenotypic characteristics of three-stage NK cells.
(§2) For biological testing, the compounds were provided to culture to evaluate their effects on NK cell expansion and differentiation. Specifically, donors of CD34+ cells (StemCell Technology) were thawed and expanded in vitro following NK culture protocol. During the first 14 days of the culture, each CRL compounds was dissolved in DMSO and added to the culture at 10 μM concentration. SR1 (at 10 μM) served as a positive control compound, while DMSO alone without any compound served as a negative control. At the end of the culture on Day 35, cell expansion, natural killer (NK) cell differentiation and cytotoxicity of the cells against K562 tumor cell line were characterized. Due to the large number of the compounds, the testing was performed in two experiments, CRL1-11 and CRL 12-22. The same donors were used for each experiment. Positive and negative controls were also included in both experiments.

K562 tumor cell line = assay: Cytotoxicity of compound-cultured cells against K562; format: cell-based; conditions: 10:1 E:T ratio
Procedure: as §2
Cytotoxicity assay was run using compound cultured cells against K562 tumor cells at 10:1 effector to target ratio (FIGS. 5A-5B) to evaluate cell functions.

CD34+ cells [2] = assay: NK cell expansion in 35-day three-stage culture with CRL compounds; format: cell-based, human; conditions: for cell expansion compared to SR1: 10 μM, Day 35; for expansion, differentiation and cytotoxicity profiles compared to SR1: PNK-007 culture
Text: as §1, §2

CD34 cells = assay: CD34 cell expansion at Day 14 of the culture with CRL compounds; format: cell-based, human; conditions: 10 μM
Procedure: as §2

CD16 [3] = assay: CD16 expression of CD16 variants transduced CYNK cells (flow cytometry); format: cell-based, human
Procedure: (§3) Human placental CD34+ cells were transduced with a lentivirus vector expressing a CD16 variants as indicated and cultured for 35 days in the presence of cytokines, including thrombopoietin, SCF, Flt3 ligand, IL-7, IL-15 and IL-2, to generate CYNK cells.
The phenotype of CYNK cells was analyzed by multicolor flow cytometry. CYNK cells were washed and stained with fluorochrome-conjugated antibodies diluted in staining buffer [2% fetal bovine serum (FBS) in phosphate buffered saline (PBS)] according to the manufacturer's protocol. Dead cells were labelled with the Live/Dead Fixable Aqua Stain (Invitrogen, Cat #L34957) and gated out. Data were acquired on BD Fortessa X20 flow cytometer (BD Biosciences) and were analyzed using FlowJo software. The data were expressed as % positive cells gated under CD56+CD3-Aqua− single cells based on the viability staining used. Setting of the % positive gate was done using the corresponding isotype-stained samples as controls.

CD16 [4] = assay: Shedding assay of CD16 variants transduced CYNK cells (PMAi 2 h); format: cell-based, human; conditions: for CD16 shedding percentage: post 2 h PMAi stimulation, n=6 donors, Lentigen LVV
Procedure: Non-transduced (NT) CYNK cells were used as a control. After 2-hour stimulation, cells from each treatment condition were then washed twice with FACS buffer (PBS with 0.5 mM EDTA and 2% FBS) and incubated human Fc block (BD Biosciences, Cat #564220) at room temperature for 10 minutes. Staining was then performed with anti-human CD16 PE (BD Biosciences, Cat #556619), anti-human CD56 APC (BD Biosciences, Cat #555518), and anti-human CD3 APC-H7 (BD Biosciences, Cat #560176), or with the corresponding isotype controls for 30 minutes at 4° C. Following washing 2× with FACS buffer the viability stain 7-Aminoactinomycin D (7-AAD) (BD Biosciences, Cat #559925) was added to all stained samples and incubated for ten minutes prior to data acquisition. The data was acquired on a […] (BD Biosciences, San Jose, CA) and analyzed in FlowJo (Tree Star, Ashland, OR). The data were expressed as % CD56^+CD16+ cells gated under 7-AAD^− cells. Setting of the % positive gate was done using isotype-stained samples as controls.

[5] = test system: HER2+ NCI-N87 gastric tumor cell line; assay: xCELLigence real time cell analysis ADCC assay with trastuzumab against NCI-N87; format: cell-based; conditions: 4 h and 24 h; E:T ratio of 2:1
Procedure: The HER2^+ NCI-N87 gastric tumor cell line was used as the target cells. CD16 variant transduced CYNK cells were thawed followed by two days recovery were used as the effector cells. […] Target cells were seeded at 8×10^4 cells/well in the 96-well plates in 100 μl assay buffer for 24 hours at 37° C. in 5% CO2. […] CYNK cells were added post 30 minutes antibodies incubation at 37° C. with 5% CO2.
The xCELLigence real time cell analysis (RTCA) system (ACEA Biosciences, San Diego, CA) was used for the determination of the ADCC response mediated by the combination of antibody and effector cells. This system can determine the real time proliferation or cell death in each well of a specialized 96-well plate with electrodes attached to the bottom E-plate by measuring cell adherence as determined by the impedance of the electrical signal that passes through the plate. The more cells that are attached to the bottom of the well the higher the resulting impedance or cell index that is measured. The cell index over time in wells with effector cells, antibody, and target is compared to the cell index in wells with target alone and is converted to a percent cytolysis.
Target cells were incubated with the effector cells in the presence of the antibodies in 200 μl final volume for 24 hours. The xCELLigence software was then used to determine the percent cytotoxicity at 4 and 24 hours of co-culture time.

[6] = test system: HER2+ NCI-N87 gastric tumor cell line; assay: Cytokine secretion assay (Luminex) of CD16 variants transduced CYNK cells with NCI-N87; format: cell-based
Procedure: Two-day in vitro recovered CYNK cells were used in this assay as the effector cells. The HER2^+ NCI-N87 gastric tumor cell line was used as the target cell. […] The supernatant was then collected after 24 h and used for downstream analysis. The cytokine concentrations were determined by Luminex analysis using a customer selected MILLIPLEX MAP magnetic bead kit (EMD Millipore, Billerica, MA, Cat #HCD8MAG-15K-07 for GM-CSF, TNF-α, and IFN-γ) according to the protocol provided by the manufacturer. The data were analyzed using Belysa software (Millipore Sigma).

CD16 [7] = assay: CD16VP shedding assay (PMA/ionomycin); format: cell-based, human
CD16 [8] = assay: NK surface markers and CD16 expression of PNK-CD16VP cells (flow cytometry, day 35); format: cell-based, human; conditions: n=8
Procedure: Non-transduced PNK cells (NT) served as a control. […] IgG was used as ADCC control. In vivo anti-tumor activity was assessed in a Daudi disseminated Xenograft model in NSG mice. […] Tumor burden in mice was monitored by Bioluminescence Imaging (BLI). Statistical differences between the groups were calculated using paired t-test using Prism.
Cell Expansion and Characterization: Cell expansion was recorded during the culture process.

[9] = test system: human placental CD34+ cells; assay: Fold expansion of CD16 variants transduced CYNK cells; format: cell-based
Text: as §3

[10] = in the presence of Trastuzumab, E:T ratio of 1:1
[11] = in the presence of trastuzumab and NCI-N87
[12] = MOI 200, Myc tag, Sirion Bio LVV

CC(C)c1csc2c(NCCc3c[nH]c4ccccc34)nc(-c3cncc(C#N)c3)nc12 [CRL17, 5-(4-((2-(1H-indol-3-yl)ethyl)amino)-7-isopropylthieno[3,2-d]pyrimidin-2-yl)nicotinonitrile]
CD56+/CD11a+ subpopulation compared to SR1 (CD34+ cells [1]): increased
killing activities compared to cells cultured with SR1 (K562 tumor cell line): increased killing activities
cell expansion compared to SR1 (CD34+ cells [2]): slightly less expansion

CC(C)c1csc2c(NCCc3c[nH]c4ccccc34)nc(-c3cncc(F)c3)nc12 [CRL18, N-(2-(1H-indol-3-yl)ethyl)-2-(5-fluoropyridin-3-yl)-7-isopropylthieno[3,2-d]pyrimidin-4-amine]
CD56+/CD11a+ subpopulation compared to SR1 (CD34+ cells [1]): increased
killing activities compared to cells cultured with SR1 (K562 tumor cell line): increased killing activities
cell expansion compared to SR1 (CD34+ cells [2]): slightly less expansion

Fc1cncc(-c2nc(NCCc3c[nH]c4ccccc34)c3occc3n2)c1 [CRL19, N-(2-(1H-indol-3-yl)ethyl)-2-(5-fluoropyridin-3-yl)furo[3,2-d]pyrimidin-4-amine]
CD34 cell expansion (CD34 cells): achieved the highest CD34 cell expansion
cell expansion compared to SR1 (CD34+ cells [2]): supported cell expansion the best
expansion, differentiation and cytotoxicity profiles compared to SR1 (CD34+ cells [2]): very similar

Cc1cncc(-c2nc(NCCc3c[nH]c4ccccc34)c3occc3n2)c1 [CRL20, N-(2-(1H-indol-3-yl)ethyl)-2-(5-methylpyridin-3-yl)furo[3,2-d]pyrimidin-4-amine]
CD34 cell expansion (CD34 cells): achieved the highest CD34 cell expansion
cell expansion compared to SR1 (CD34+ cells [2]): supported cell expansion the best
expansion, differentiation and cytotoxicity profiles compared to SR1 (CD34+ cells [2]): very similar

Cc1cncc(-c2nc(NCCc3c[nH]c4ccccc34)c3scc(C(C)C)c3n2)c1 [CRL21, N-(2-(1H-indol-3-yl)ethyl)-7-isopropyl-2-(5-methylpyridin-3-yl)thieno[3,2-d]pyrimidin-4-amine]
CD56+/CD11a+ subpopulation compared to SR1 (CD34+ cells [1]): increased
killing activities compared to cells cultured with SR1 (K562 tumor cell line): increased killing activities
cell expansion compared to SR1 (CD34+ cells [2]): slightly less expansion

N#Cc1cncc(-c2nc(NCCc3c[nH]c4ccccc34)c3occc3n2)c1 [CRL22, 5-(4-((2-(1H-indol-3-yl)ethyl)amino)furo[3,2-d]pyrimidin-2-yl)nicotinonitrile]
CD34 cell expansion (CD34 cells): achieved the highest CD34 cell expansion
cell expansion compared to SR1 (CD34+ cells [2]): supported cell expansion the best
expansion, differentiation and cytotoxicity profiles compared to SR1 (CD34+ cells [2]): very similar

CD16VP: high affinity (158 Val) and proteinase cleavage resistant (197Pro) CD16 variant
CD16 expression (CD16 [3]; 6 donors): 61.9% ± 15.4%
CD16 shedding resistance post PMAi stimulation (CD16 [4]; 6 donors): Yes
CD16 shedding percentage (CD16 [4]): 4.3%±3.0%
cytotoxicity change (CYNK+Trastuzumab − CYNK+IgG) compared to NT [5]: significant difference
GM-CSF secretion against NCI-N87 [6, 10]: 5.4 ± 2.7 ng/1 × 10^6 cells
IFNg secretion against NCI-N87 [6, 10]: 1.8 ± 1.6 ng/1 × 10^6 cells
TNFa secretion against NCI-N87 [6, 10]: 0.8 ± 0.3 ng/1 × 10^6 cells
GM-CSF secretion compared to NT [6, 11]: significant difference
CD16VP expression after activation (CD16 [7]): resistant to shedding
CD16 expression (CD16 [8]): ~65%

Construct #1: CD16 variant: 176 V (also referred to as 158 V); 197 Glycine (G); with or without Myc tag
CD16 expression at Day10, Day35 and post thaw compared to CD16VP (CD16 [3]; Lentigen LVV, 6 donors): comparable CD16 expression
CD16 expression at Day10, 21, 28, 35 and 40 compared to CD16VP (CD16 [3]; [12]): comparable CD16 expression
CD16 expression at Day 10 compared to CD16VP (CD16 [3]; [12]): comparable CD16 expression
CD16 shedding post PMAi stimulation (CD16 [4]; Myc tag, Sirion Bio LVV): trend of shedding resistance
CD16 shedding percentage (CD16 [4]): 9.4%±8.5%
cytotoxicity change (CYNK+Trastuzumab − CYNK+IgG) compared to NT [5]: significant difference
GM-CSF secretion compared to NT [6, 11]: significant difference
cytokine secretion (IFNg, TNFa and GM-CSF) compared to CD16VP [6, 11]: no significant difference
fold expansion compared to CD16VP and NT ([9]; Lentigen LVV, n=6 donors): comparable fold expansion
fold expansion compared to CD16VP ([9]; Myc tag, Sirion Bio LVV): comparable fold expansion
